Tests used:
Assay in all cases: relative viability (nuclei count vs DMSO), 5 days (fraction); higher = more cells survive
RU-SKI 43 + Palbociclib = compound: CC[C@@H](C)CNCC(=O)N1CCC2=C([C@@H]1COC3=CC=CC(=C3)C)C=CS2 [RU-SKI 43] + CC(=O)c1c(C)c2cnc(Nc3ccc(N4CCNCC4)cn3)nc2n(C2CCCC2)c1=O [Palbociclib] (partner 0.5 µM)
Outline: (§1)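 Relative viability equals treated-well nuclei counts divided by vehicle-well nuclei counts. Counts came from 4× images of lung cancer cell lines grown in 1536-well plates for 5 days after pin-tool dosing on the day after seeding. Dosing used one drug alone or a fixed anchor-drug dose plus five library-drug doses (not always all listed) in √10 steps, and values are medians of duplicate plates.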

RU-SKI 43 + Bortezomib = compound: CC[C@@H](C)CNCC(=O)N1CCC2=C([C@@H]1COC3=CC=CC(=C3)C)C=CS2 [RU-SKI 43] + CC(C)C[C@H](NC(=O)[C@H](Cc1ccccc1)NC(=O)c1cnccn1)B(O)O [Bortezomib] (partner 0.002 µM)
Outline: as §1

RU-SKI 43 + Dasatinib = compound: CC[C@@H](C)CNCC(=O)N1CCC2=C([C@@H]1COC3=CC=CC(=C3)C)C=CS2 [RU-SKI 43] + Cc1nc(Nc2ncc(C(=O)Nc3c(C)cccc3Cl)s2)cc(N2CCN(CCO)CC2)n1 [Dasatinib] (partner 0.075 µM)
Outline: as §1

MK-8033 + Phenformin = compound: Cn1cc(-c2cnc3ccc4ccc(CS(=O)(=O)NCc5ccccn5)cc4c(=O)c3c2)cn1 [MK-8033] + N=C(N)NC(=N)NCCc1ccccc1 [Phenformin] (partner 250 µM)
Outline: as §1

**Q.** What does the source list for UMC-11?
**A.** relative viability (RU-SKI 43 + Palbociclib; first compound 0.1 µM): 0.317; relative viability (RU-SKI 43 + Palbociclib; first compound 0.3162 µM): 0.31; relative viability (RU-SKI 43 + Palbociclib; first compound 1 µM): 0.351; relative viability (RU-SKI 43 + Palbociclib; first compound 3.162 µM): 0.314; relative viability (RU-SKI 43 + Palbociclib; first compound 10 µM): 0.323; relative viability (RU-SKI 43 + Bortezomib; first compound 0.1 µM): 0.731; relative viability (RU-SKI 43 + Bortezomib; first compound 0.3162 µM): 1.1; relative viability (RU-SKI 43 + Bortezomib; first compound 1 µM): 1.05; relative viability (RU-SKI 43 + Bortezomib; first compound 3.162 µM): 0.666; relative viability (RU-SKI 43 + Bortezomib; first compound 10 µM): 0.927; relative viability (RU-SKI 43 + Dasatinib; first compound 0.1 µM): 0.526; relative viability (RU-SKI 43 + Dasatinib; first compound 0.3162 µM): 0.685; relative viability (RU-SKI 43 + Dasatinib; first compound 1 µM): 0.577; relative viability (RU-SKI 43 + Dasatinib; first compound 3.162 µM): 0.516; relative viability (RU-SKI 43 + Dasatinib; first compound 10 µM): 0.471; relative viability (MK-8033 + Phenformin; first compound 0.02 µM): 0.323; relative viability (MK-8033 + Phenformin; first compound 0.06325 µM): 0.258; relative viability (MK-8033 + Phenformin; first compound 0.2 µM): 0.312; relative viability (MK-8033 + Phenformin; first compound 2 µM): 0.266
